Measurements reported in patent US20240182407A1, “QUINOLINE COMPOUND SALT OR CRYSTAL FORM, PREPARATION METHOD THEREFOR, AND APPLICATION THEREOF” (Nanjing Zenshine Pharmaceuticals Co., Ltd., priority 2021, published 2024).
≈ marks a conversion by molar mass, not a printed value. Where “and” joins values, the source holds several entries; their conditions need not be identical. Equal values may be shown once.

Key:
[1] = Solubility in simulated gastrointestinal fluids (SGF, FeSSIF, FaSSIF) at 37° C.; type: physicochemical; conditions: for Solubility: 37° C.
Experimental: The solubilities of Compound A and p-toluenesulfonate (Sample 5, crystal form I) in simulated gastrointestinal fluids (SGF, FeSSIF and FaSSIF) at 37° C. were tested.
About 7.5 mg of Compound A and p-toluenesulfonate were separately added to 1.5 mL of three biological vehicles to prepare suspensions. All the suspensions were placed in a shaker at 37° C. and shaken at 200 rpm for 24 h, and about 0.5 mL was sampled separately at 0.5 h, 2 h and 24 h for filtration. The obtained filtrates were subjected to HPLC analysis and pH measurement, and the filter cakes were respectively measured by XRPD.

[2] = Solid stability, 40° C./75% RH and 60° C., one week (HPLC purity, XRPD); type: physicochemical; conditions: solid
Experimental: Appropriate amounts of Compound A and p-toluenesulfonate of Compound A (Sample 5, crystal form I) were respectively placed in 40° C./75% RH and 60° C. environments for one week to determine solid stability. At days 0 and 7, HPLC purity analysis and solid XRPD determination were carried out, and some of the results were as shown in Table 7.

[3] = system: human-derived lymphoma DoHH-2 cell line; experiment: Human-derived lymphoma DoHH-2 subcutaneous xenograft in CB17/SCID female immunodeficient mice; type: in vivo, mouse; conditions: 50 mg/kg p.o. BID, Day 24
Experimental: In Example 8, the anti-tumor effects of p-toluenesulfonate of Compound A at various dosages by intragastric administration on human-derived lymphoma DoHH-2 cell line subcutaneous transplantation CB17/SCID female immunodeficient mouse model were evaluated.
7-9-week-old CB17/SCID female immunodeficient mice were subcutaneously inoculated with […] DoHH-2 cells to establish a subcutaneous human lymphoma xenograft tumor model. When the average tumor volume in the mice reached 68 mm^3, the mice were randomly divided into groups and dosed on the day of grouping. The treatment method for each treatment group and vehicle control group was as follows:
p-toluenesulfonate of Compound A (Sample 6), given 100 mg/kg (p.o. QD) group, once daily, for 25 days (days 0-24);
p-toluenesulfonate of Compound A (Sample 6), given 30 mg/kg (p.o. QD) group, once daily, for 25 days (days 0-24);
positive treatment group (Duvelisib, purchased from Shanghai Lollane biological technology Co., Ltd.), given 50 mg/kg (p.o. BID) twice daily with an interval of 12 h, for 24 days; and
vehicle control group (5% DMSO/40% PEG400/55% water, by volume) (p.o. QD), given once daily, for 25 days (days 0-24).
There were 10 mice in each group, and all the mice were administered starting on the day of grouping (Day 0) and euthanized on Day 24 after grouping (Day 24). The efficacy was evaluated according to the tumor volume at the end point of the experiment.
The abbreviation p.o. stood for oral gavage, QD stood for once daily, and BID stood for twice daily.
The relative tumor inhibition rate (TGI) was calculated by the following formula: […]
T and C were respectively the average tumor volumes in the experimental group and the vehicle control group at a specific time point.

Work on `C[C@H](Nc1nc(N)nc(N)c1C#N)c1cc2ccc(F)cc2nc1-c1ccccn1` [Compound A] yielded a pH of filtrate ([1]; FaSSIF (pH 6.52), 0.5 h) of 6.55, a pH of filtrate ([1]; FaSSIF (pH 6.52), 2 h) of 6.51 and a pH of filtrate ([1]; FaSSIF (pH 6.52), 24 h) of 6.34. For the same compound, the solubility at 30 min ([1]; FaSSIF, 37 °C, pH 6.52, fassif, thermodynamic from solid, FaSSIF (pH 6.52), 30 min) was 370 µg/mL (≈ 924 µM), the solubility at 2 h ([1]; FaSSIF, 37 °C, pH 6.52, fassif, thermodynamic from solid, FaSSIF (pH 6.52), 2 h) was 320 µg/mL (≈ 799 µM) and the solubility at 24 h ([1]; FaSSIF, 37 °C, pH 6.52, fassif, thermodynamic from solid, FaSSIF (pH 6.52), 24 h) was 350 µg/mL (≈ 874 µM). It also gave a Solubility ([1]; FeSSIF (pH 4.99), 30 min) of 2060 µg/mL (≈ 5140 µM), a Solubility ([1]; FeSSIF (pH 4.99), 2 h) of 1890 µg/mL (≈ 4720 µM) and a Solubility ([1]; FeSSIF (pH 4.99), 24 h) of 2200 µg/mL (≈ 5490 µM). It also gave a pH of filtrate ([1]; FeSSIF (pH 4.99), 0.5 h) of 5.00, a pH of filtrate ([1]; FeSSIF (pH 4.99), 2 h) of 4.94 and a pH of filtrate ([1]; FeSSIF (pH 4.99), 24 h) of 4.86. The Solubility ([1]; SGF (pH 1.21), 30 min) was >4920 µg/mL, the Solubility ([1]; SGF (pH 1.21), 2 h) was >4910 µg/mL and the Solubility ([1]; SGF (pH 1.21), 24 h) was >4830 µg/mL. It also gave a pH of filtrate ([1]; SGF (pH 1.21), 0.5 h) of 1.19, a pH of filtrate ([1]; SGF (pH 1.21), 2 h) of 1.16 and a pH of filtrate ([1]; SGF (pH 1.21), 24 h) of 1.18. For the same compound, the “Purity (peak area %) Average - 40° C./75% RH - 7 d” value ([2]; 40° C./75% RH, 7 d, average) was 98.49 peak area %, the “Purity (peak area %) 40° C./75% RH - 7 d” value ([2]; 40° C./75% RH, 7 d, single determinations) was 98.52 peak area % and 98.45 peak area % and the “Purity (peak area %) Average - 60° C. - 7 d” value ([2]; 60° C., 7 d, average) was 98.43 peak area %. The “Purity (peak area %) 60° C. - 7 d” value ([2]; 60° C., 7 d, single determinations) was 98.37 peak area % and 98.50 peak area %, the “decrease of chemical purity” value ([2]; 60° C., 7 days) was “about 0.16%” and the “Purity (peak area %) Average - 0 d” value ([2]; day 0, average) was 98.59 peak area %. The “Purity (peak area %) 0 d” value ([2]; day 0, single determinations) was 98.63 peak area % and 98.55 peak area %.

In the case of `C[C@H](Nc1ncnc2nc[nH]c12)c1cc2cccc(Cl)c2c(=O)n1-c1ccccc1` [Duvelisib, reference compound], the average tumor volume [3] is reported as 1496.12 mm^3 and the “relative tumor inhibition rate (TGI)” value [3] is reported as 30%.
